According to patent US20100179200A1, “2-OXOTHIAZOLIDINE 4-CARBOXYLIC ACID COMPOUNDS FOR PROMOTING DESQUAMATION OF THE SKIN” (SOCIETE L'OREAL, S.A., priority 2000, published 2010):

Legend:
corneodesmosine = test: Evaluating desquamation by measuring the degradation of corneodesmosines (immunoblot of stratum corneum acetonic powders); type: biochemical, human; details: aqueous solution containing 2% of active agent, pH 8.0, incubation 17 h at 30° C., versus control without active agent
Text: Corneodesmosine is one of the major markers of desquamation of the corneodesmosome. It is studied by immunoblotting after separation by electrophoresis and transfer onto a membrane.
The mouse monoclonal antibody G36-19 is specific for corneodesmosine; it fauns part of a series of antibodies directed against epidermal differentiation antigens, produced after immunizing a mouse with a homogenate of human plantar horny layer, and then characterized (Serre G. et al., J. Invest. Dermatol. 1991; 97(6):1061-72).
Varnish-stripping operations are carried out on the lower legs of volunteers (modification of the procedure by Lundström A. and Egelrud T., Acta Derm. Venereol. (Stockholm) 71, 471-474, 1991). […]
The samples and also a Rainbow (Amersham Pharmacia Biotech) low molecular weight standard at 1/3 are separated by electrophoresis on gel containing 12% acrylamide for 30 minutes at 100 V and then for 1 hour at 200 V. After the electrophoresis, the proteins are transferred onto an Immobilon-P membrane (Millipore) for 3 hours at 60 V. The membrane is then incubated for twice 15 minutes in TBS-TL buffer: 25 mM Tris, 0.15M NaCl pH 7.2, 0.05% Tween 20, 0.5% skimmed milk powder, in order to block the non-specific sites. […] The chemiluminescence of the corneodesmosine bands is measured with the FluorS Multimager (Biorad). The 33 and 46 kD bands are quantified with the Quantity-one software (Biorad). […]

[1] = Solubility of procysteine; type: physicochemical

O=C1N[C@H](C(=O)O)CS1 [Procysteine, L-2-oxothiazolidine-4-carboxylic acid]
Percentage increase in corneodesmosine degradation (corneodesmosine): 77% | solubility in ethanol ([1]; ethanol): greater than 10% | solubility in water ([1]; water): greater than 4%
